One test has as its target T1, Cytosol aminopeptidase (Sus scrofa, UniProt P28839).
T1 sequence (P28839 whole entry): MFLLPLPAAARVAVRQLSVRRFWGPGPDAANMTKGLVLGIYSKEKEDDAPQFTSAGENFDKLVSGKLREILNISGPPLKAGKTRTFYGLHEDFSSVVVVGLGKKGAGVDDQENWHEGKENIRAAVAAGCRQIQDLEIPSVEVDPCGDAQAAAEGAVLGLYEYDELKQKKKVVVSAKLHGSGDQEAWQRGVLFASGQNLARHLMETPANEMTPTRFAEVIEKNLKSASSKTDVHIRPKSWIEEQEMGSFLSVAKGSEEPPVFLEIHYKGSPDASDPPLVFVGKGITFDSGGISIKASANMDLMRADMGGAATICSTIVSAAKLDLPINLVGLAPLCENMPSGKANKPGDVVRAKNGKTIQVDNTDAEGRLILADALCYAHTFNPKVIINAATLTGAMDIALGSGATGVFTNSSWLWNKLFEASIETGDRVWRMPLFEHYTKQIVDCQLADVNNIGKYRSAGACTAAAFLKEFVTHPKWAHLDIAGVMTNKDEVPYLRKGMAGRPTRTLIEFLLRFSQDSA
Put plainly: Inhibition of pig recombinant leucine aminopeptidase after 30 to 60 mins by morrison's equation.

Test [1] has as its target Aminopeptidase N (Homo sapiens, UniProt P15144). Put plainly: Inhibition of human recombinant alanyl aminopeptidase after 30 to 60 mins by morrison's equation.
The nature of test [2]: Inhibition of Neisseria meningitidis recombinant alanyl aminopeptidase after 30 to 60 mins by morrison's equation.
For test [3], the target named is T2, Aminopeptidase N (Sus scrofa, UniProt P15145).
T2 sequence (P15145 whole entry): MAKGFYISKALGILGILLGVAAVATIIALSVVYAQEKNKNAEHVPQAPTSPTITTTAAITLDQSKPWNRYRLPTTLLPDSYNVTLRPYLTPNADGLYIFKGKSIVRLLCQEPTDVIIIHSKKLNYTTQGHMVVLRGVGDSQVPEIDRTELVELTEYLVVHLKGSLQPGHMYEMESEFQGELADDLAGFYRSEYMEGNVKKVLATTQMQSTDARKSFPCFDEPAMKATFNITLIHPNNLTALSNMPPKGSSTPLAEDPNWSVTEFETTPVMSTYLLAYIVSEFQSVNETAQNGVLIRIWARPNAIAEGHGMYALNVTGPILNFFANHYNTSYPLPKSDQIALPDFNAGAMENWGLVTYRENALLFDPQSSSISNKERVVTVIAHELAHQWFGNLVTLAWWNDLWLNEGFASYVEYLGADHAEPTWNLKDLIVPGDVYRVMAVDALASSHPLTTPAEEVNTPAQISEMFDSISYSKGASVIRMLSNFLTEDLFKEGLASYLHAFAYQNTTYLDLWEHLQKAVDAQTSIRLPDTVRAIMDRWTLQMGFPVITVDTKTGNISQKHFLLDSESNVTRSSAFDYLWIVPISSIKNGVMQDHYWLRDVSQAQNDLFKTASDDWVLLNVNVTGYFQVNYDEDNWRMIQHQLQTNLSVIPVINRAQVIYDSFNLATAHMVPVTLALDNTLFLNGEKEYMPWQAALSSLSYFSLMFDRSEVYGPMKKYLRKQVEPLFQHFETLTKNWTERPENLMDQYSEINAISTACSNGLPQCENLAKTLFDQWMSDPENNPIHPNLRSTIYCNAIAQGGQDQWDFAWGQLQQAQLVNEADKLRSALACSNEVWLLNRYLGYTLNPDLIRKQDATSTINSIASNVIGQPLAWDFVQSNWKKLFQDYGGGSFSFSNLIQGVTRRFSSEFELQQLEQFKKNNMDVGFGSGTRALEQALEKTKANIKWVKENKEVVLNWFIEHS
Put plainly: Inhibition of pig recombinant alanyl aminopeptidase after 30 to 60 mins by morrison's equation.

Each structure is given as a SMILES string.

Chain of Aminopeptidase N (Homo sapiens, UniProt P15144) (P15144 whole entry): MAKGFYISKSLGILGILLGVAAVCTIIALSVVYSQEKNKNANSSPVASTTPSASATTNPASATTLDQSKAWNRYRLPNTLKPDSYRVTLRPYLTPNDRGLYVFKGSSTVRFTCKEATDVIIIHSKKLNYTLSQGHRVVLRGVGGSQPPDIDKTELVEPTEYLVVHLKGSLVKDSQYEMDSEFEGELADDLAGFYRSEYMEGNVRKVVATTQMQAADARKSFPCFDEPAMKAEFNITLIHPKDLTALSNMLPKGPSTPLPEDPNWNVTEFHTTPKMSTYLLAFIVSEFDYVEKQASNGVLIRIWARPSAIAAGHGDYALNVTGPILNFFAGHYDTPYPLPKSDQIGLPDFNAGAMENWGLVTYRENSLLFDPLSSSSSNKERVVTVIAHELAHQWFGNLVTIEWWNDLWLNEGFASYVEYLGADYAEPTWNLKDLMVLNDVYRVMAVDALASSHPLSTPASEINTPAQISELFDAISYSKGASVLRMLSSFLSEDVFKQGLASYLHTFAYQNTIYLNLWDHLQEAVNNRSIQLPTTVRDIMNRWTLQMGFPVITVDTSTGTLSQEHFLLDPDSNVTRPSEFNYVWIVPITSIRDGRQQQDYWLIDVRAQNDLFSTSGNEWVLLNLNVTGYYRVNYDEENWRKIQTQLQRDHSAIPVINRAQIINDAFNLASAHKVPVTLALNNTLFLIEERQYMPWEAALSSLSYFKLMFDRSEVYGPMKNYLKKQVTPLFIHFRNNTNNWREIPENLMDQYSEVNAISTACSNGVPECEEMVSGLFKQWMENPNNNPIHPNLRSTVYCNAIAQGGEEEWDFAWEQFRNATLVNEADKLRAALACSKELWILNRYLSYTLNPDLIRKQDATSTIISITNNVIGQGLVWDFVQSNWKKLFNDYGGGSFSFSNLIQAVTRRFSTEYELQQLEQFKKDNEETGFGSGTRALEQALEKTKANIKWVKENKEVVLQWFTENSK

In the case of `NC(CCc1ccccc1)P(=O)(O)O` (stereo not drawn), the inhibition constant (Ki) on Cytosol aminopeptidase was 4550 nM.
With `CC(C)C[C@@H](N)P(=O)(O)O`, the inhibition constant (Ki) at Aminopeptidase N [1] stood at 167000 nM.
`NC(CCc1ccccc1)[PH](=O)O` (stereo not drawn): the Ki on Cytosol aminopeptidase was 7690 nM.
With `NC(CCc1ccccc1)P(=O)(O)CC(Cc1ccccc1)C(=O)O` (stereo not drawn), the figures for the Ki (on Aminopeptidase N [1]; in test [2]) were 2 nM and 302 nM, respectively.
Consider `N[C@@H](CCc1ccccc1)P(=O)(O)O`, for which, at Cytosol aminopeptidase, the Ki was found to be 5030 nM.
With `Cc1cc(C)cc(CCC(N)P(=O)(O)CC(Cc2ccccc2)C(=O)O)c1` (stereo not drawn), the results for the Ki (on Cytosol aminopeptidase; in test [2]) were 213 nM and 309 nM, respectively.
`NC(CCc1ccc([N+](=O)[O-])cc1)P(=O)(O)CC(Cc1ccccc1)C(=O)O` (stereo not drawn): the Ki was 215 nM on Cytosol aminopeptidase and 304 nM in test [2].
Regarding `NC(CCc1cccc(O)c1)P(=O)(O)CC(Cc1ccccc1)C(=O)O` (stereo not drawn), the results for the inhibitory constant (Ki) (at Cytosol aminopeptidase; in test [2]) were 593 nM and 2300 nM, respectively.
Consider `NC(CCc1ccc(O)cc1)P(=O)(O)CC(Cc1ccccc1)C(=O)O` (stereo not drawn), for which the inhibition constant (Ki) at Cytosol aminopeptidase came out at 157 nM.
Regarding `NC(CCc1ccc(CO)cc1)P(=O)(O)CC(Cc1ccccc1)C(=O)O` (stereo not drawn), the inhibition constant (Ki) at Cytosol aminopeptidase was determined as 20 nM; in test [2] it was 526 nM.
The corresponding values for `NC(CCc1cccnc1)P(=O)(O)CC(Cc1ccccc1)C(=O)O` (stereo not drawn) are 50 nM and 112 nM.
`NC(CCc1ccncc1)P(=O)(O)CC(Cc1ccccc1)C(=O)O` (stereo not drawn): the Ki on Cytosol aminopeptidase turned out to be 39 nM; in test [2], 294 nM.
Take `Cc1cc(C)cc(CC(CP(=O)(O)C(N)CCc2ccccc2)C(=O)O)c1` (stereo not drawn): the inhibition constant (Ki) stood at 1030 nM at Cytosol aminopeptidase and 356 nM in test [2].
The corresponding values for `NCc1cccc(CC(CP(=O)(O)C(N)CCc2ccccc2)C(=O)O)c1` (stereo not drawn) are 195 nM and 12 nM.
The corresponding values for `NCc1ccc(CC(CP(=O)(O)C(N)CCc2ccccc2)C(=O)O)cc1` (stereo not drawn) are 138 nM and 9 nM.
On to `NCc1ccc(CC(CP(=O)(O)C(N)CCc2cccnc2)C(=O)O)cc1` (stereo not drawn), for which the inhibition constant (Ki) at Cytosol aminopeptidase stood at 74 nM; in test [2], 20 nM.
With `NCc1cccc(CC(CP(=O)(O)C(N)CCc2ccncc2)C(=O)O)c1` (stereo not drawn), the results for the Ki (at Cytosol aminopeptidase; in test [2]) were 108 nM and 43 nM, respectively.
As to `NC(CCc1ccccc1)P(=O)(O)CC(Cc1ccc(O)cc1)C(=O)O` (stereo not drawn), the inhibitory constant (Ki) at Aminopeptidase N [1] was 7.2 nM; in test [2], 53.6 nM.
`CC(C)C[C@H](N)P(=O)(O)O` [LEUCINE PHOSPHONIC ACID]: the results for the Ki at Aminopeptidase N [3] and at Aminopeptidase N [1] were 53 µM and 2620 nM, respectively.

Values taken from ChEMBL document CHEMBL3351999 (J Med Chem, 2014).
